Laboratory results from patent US7446199B2, “Compositions useful as inhibitors of protein kinases” (Vertex Pharmaceuticals Incorporated, priority 2003, dated 2008).

What was measured:
Assay type in all cases: biochemical
c-KIT = target: T1, c-KIT (Homo sapiens, UniProt P10721); assay: Inhibition of c-KIT, radiometric filter-binding assay; settings: 700 μM ATP, 0.5 mg/mL pE4Y, room temperature
T1 construct: 0.02% BSA and 25 nM c-KIT
Procedure, shortened: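 Radiometric filter-binding: 25 nM c-KIT (enzyme in the Solution 2 mix) with poly(Glu,Tyr) 4:1 substrate at 0.5 mg/mL and [γ-^33P]ATP at 700 μM (both final), in HEPES pH 7.5/MgCl2/NaCl/DTT/BSA with 2.5% DMSO. Incubated 20 min at room temperature, stopped with TCA, and ^33P incorporation counted on filters. 12-point titration, final compound typically 0.01-5 μM; IC50 or Ki from curve fit.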

SYK = SYK (Homo sapiens, UniProt P43405); assay: SYK enzyme assay, coupled enzyme assay; settings: 200 μM ATP, 4 μM poly Gly-Tyr peptide, 30° C.
Procedure, shortened: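 Pyruvate kinase/lactate dehydrogenase-coupled NADH assay in HEPES pH 7.5 with MgCl2, NaCl, DTT and 1.5% DMSO, using 200 μM ATP, 4 μM poly Gly-Tyr and 25 nM enzyme. Compound at 30 μM final was preincubated ~10 min at 30 °C. Rates were read over 5 min at 30 °C and Ki derived.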

Aurora-2 = target: T2, Aurora-2 (Homo sapiens, UniProt O14965); assay: Inhibition of AUR-2, coupled enzyme assay; settings: 70 nM Aurora-2, 800 μM peptide LRRASLG, 30° C.
T2 construct: addition of 10 μL of Aurora-2 stock solution to give a final concentration of 70 nM
T2 sequence (O14965 1-403): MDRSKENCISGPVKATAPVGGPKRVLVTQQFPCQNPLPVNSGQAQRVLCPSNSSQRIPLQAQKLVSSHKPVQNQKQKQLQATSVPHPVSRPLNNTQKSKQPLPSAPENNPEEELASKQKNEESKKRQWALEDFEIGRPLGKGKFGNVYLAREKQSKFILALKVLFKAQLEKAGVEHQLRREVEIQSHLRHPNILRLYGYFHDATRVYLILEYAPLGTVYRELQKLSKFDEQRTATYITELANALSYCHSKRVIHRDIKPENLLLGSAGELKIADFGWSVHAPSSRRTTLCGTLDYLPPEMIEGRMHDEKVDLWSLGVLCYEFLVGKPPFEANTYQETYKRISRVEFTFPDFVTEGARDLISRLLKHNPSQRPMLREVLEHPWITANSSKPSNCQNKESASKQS
Procedure, shortened: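 Coupled pyruvate kinase/lactate dehydrogenase assay with 70 nM Aurora-2, 800 μM LRRASLG peptide and […] in 0.1 M HEPES pH 7.5, 10 mM MgCl2, 1 mM DTT, 25 mM NaCl. Compound (up to 30 μM final) preincubated 10 min at 30 °C; NADH absorbance at 340 nm followed 5 min. Ki from rates versus inhibitor concentration.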

T1 sequence (P10721 26-976): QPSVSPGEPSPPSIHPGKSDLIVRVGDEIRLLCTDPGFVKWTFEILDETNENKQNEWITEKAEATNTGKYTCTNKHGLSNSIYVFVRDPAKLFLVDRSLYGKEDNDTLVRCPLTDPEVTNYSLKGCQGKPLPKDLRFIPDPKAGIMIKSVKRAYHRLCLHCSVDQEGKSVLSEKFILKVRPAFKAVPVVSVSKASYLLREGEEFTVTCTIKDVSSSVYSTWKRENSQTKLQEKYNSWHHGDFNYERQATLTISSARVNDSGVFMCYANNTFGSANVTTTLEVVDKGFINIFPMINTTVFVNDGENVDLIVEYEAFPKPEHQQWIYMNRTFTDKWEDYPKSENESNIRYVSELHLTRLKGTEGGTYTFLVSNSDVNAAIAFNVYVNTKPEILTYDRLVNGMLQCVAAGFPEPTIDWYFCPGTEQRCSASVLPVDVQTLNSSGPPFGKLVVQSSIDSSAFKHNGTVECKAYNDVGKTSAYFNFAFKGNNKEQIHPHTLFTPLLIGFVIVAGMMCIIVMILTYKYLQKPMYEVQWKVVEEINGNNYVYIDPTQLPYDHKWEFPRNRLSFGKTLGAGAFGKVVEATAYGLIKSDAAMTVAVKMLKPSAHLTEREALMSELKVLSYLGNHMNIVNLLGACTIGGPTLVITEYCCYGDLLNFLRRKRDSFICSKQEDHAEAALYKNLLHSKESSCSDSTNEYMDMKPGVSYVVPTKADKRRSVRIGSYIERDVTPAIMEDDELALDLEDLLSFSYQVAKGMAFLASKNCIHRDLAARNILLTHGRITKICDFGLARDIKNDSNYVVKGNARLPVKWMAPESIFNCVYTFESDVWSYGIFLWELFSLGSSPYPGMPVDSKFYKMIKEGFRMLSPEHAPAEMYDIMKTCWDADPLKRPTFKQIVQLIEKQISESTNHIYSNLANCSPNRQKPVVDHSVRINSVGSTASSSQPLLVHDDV

Ki (c-KIT) [µM]	Ki (SYK) [µM]	Ki (Aurora-2) [µM]	SMILES
0.2 to 1	–	–	OCc1cnc2[nH]cc(-c3oncc3-c3cccc(F)c3F)c2c1 [Compound 55, {3-[4-(2,3-Difluoro-phenyl)-isoxazol-5-yl]-1H-pyrrolo[2,3-b]pyridin-5-yl}-methanol]
< 0.2	0.2 to 1	–	C[N+]1(C)CCN(c2ccc(-c3cnc4[nH]cc(-c5oncc5-c5cccc(F)c5F)c4c3)cc2)CC1 [Compound 155]
0.2 to 1	–	0.2 to 1	Cc1cnc2[nH]cc(-c3oncc3-c3cccc(F)c3F)c2c1 [Compound 46, 3-[4-(2,3-Difluoro-phenyl)-isoxazol-5-yl]-5-methyl-1H-pyrrolo[2,3-b]pyridine]
< 0.2	–	< 0.2	NC(=O)c1ccc(-c2cnc3[nH]cc(-c4oncc4-c4cccc(F)c4F)c3c2)cc1 [Compound 153]
< 0.2	–	–	CN(C)C1CCC(c2cnc3[nH]cc(-c4oncc4-c4cccc(F)c4F)c3c2)CC1 (stereo not drawn) [Compound 141, (4-{3-[4-(2,3-Difluoro-phenyl)-isoxazol-5-yl]-1H-pyrrolo[2,3-b]pyridin-5-yl}-cyclohexyl)-dimethylamine]
–	1 to 12.5	< 0.2	Fc1cccc(-c2cnoc2-c2c[nH]c3ncc(Cl)cc23)c1F [Compound 44, 3-[4-(2,3-Difluoro-phenyl)-isoxazol-5-yl]-5-chloro-1H-pyrrolo[2,3-b]pyridine]

The remaining lines, values behind:

SMILES	Ki (c-KIT) [µM]	Ki (SYK) [µM]	Ki (Aurora-2) [µM]
Fc1ccc(F)c(-c2cnoc2-c2c[nH]c3ncccc23)c1F [Compound 41, 3-[4-(2,3,6-Trifluoro-phenyl)-isoxazol-5-yl]-1H-pyrrolo [2,3-b]pyridine]	–	1 to 12.5	–
c1ccc(-c2cnoc2-c2c[nH]c3ncccc23)cc1 [Compound 35, 3-[4-Phenyl-isoxazol-5-yl]-1H-pyrrolo[2,3-b]pyridine]	–	1 to 12.5	–
COc1cnc2[nH]cc(-c3nncn3-c3cccc(F)c3F)c2c1 [Compound 108, 3-[4-(2,3-Difluoro-phenyl)-4H-[1,2,4]triazol-3-yl]-5-methoxy-1H-pyrrolo[2,3-b]pyridine]	0.2 to 1	–	–
CN1CCN(C(=O)[C@H]2C[C@@H]2c2cnc3[nH]cc(-c4oncc4-c4cccc(F)c4F)c3c2)CC1 (relative stereo) [Compound 142, trans-(2-{3-[4-(2,3-Difluoro-phenyl)-isoxazol-5-yl]-1H-pyrrolo[2,3-b]pyridin-5-yl}-cyclopropyl)-(4-methyl-piperazin-1-yl)-methanone]	< 0.2	–	–
Fc1cccc(-n2cnnc2-c2c[nH]c3ncc(-c4ccc(N5CCNCC5)nc4)cc23)c1F [Compound 111, 3-[4-(2,3-Difluoro-phenyl)-4H-[1,2,4]triazol-3-yl]-5-(6-piperazin-1-yl-pyridin-3-yl)-1H-pyrrolo[2,3-b]pyridine]	0.2 to 1	–	–
